Test results reported in patent US20240025906A1 (NEURON23, INC., priority 2022, published 2024).
pIC50, pKd: −log10 of the molar value.

How the values were obtained:
[1] = target: T1, TYK2 JH2 (Homo sapiens, UniProt P29597); experiment: TYK2 JH2 binding assay (KINOMEscan KdELECT competitive binding); conditions: TYK2 JH2 domain, DiscoverX KINOMEscan KdELECT (Assay A); read-out: Biochemical TYK2_DiscoverX_JH2_BND_Kd
T1 construct: purchased DiscoverX (KINOMEscan KdELECT service); host or cells: E. coli BL21-derived (T7 phage display) or HEK-293
In short: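 Beads carrying a biotinylated ligand were mixed with tagged JH2 kinase and compound (11 points, 3-fold steps, 0.9% DMSO) and shaken 1 h at room temperature. After washing, kinase was released with 0.5 μM untagged ligand over 30 min and measured by qPCR to derive Kd.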

[2] = test system: JAK1/TYK2 pSTAT5 (Tyr694/699) in THP-1 cell line; experiment: IFNa-stimulated JAK1/TYK2 pSTAT5 (Tyr694/699) inhibition cellular assay, AlphaLISA; type: cell-based; conditions: Homo sapiens; THP-1 cells, IFNa-stimulated, AlphaLISA (Assay B); read-out: Cellular_THP1_IFNa-pSTATS_TYK2
In short: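 An eight-point 6-fold titration of compound (0.04–10000 nM final) is given to THP-1 cells for 1 h before 30 min of IFNa exposure. Phospho-STAT5 is read by AlphaLISA at 615 nm. IC50 values are derived by logistic regression with bottom set to 0 and Hill slope set to −1.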

T1 sequence (P29597 589-875 limits assumed): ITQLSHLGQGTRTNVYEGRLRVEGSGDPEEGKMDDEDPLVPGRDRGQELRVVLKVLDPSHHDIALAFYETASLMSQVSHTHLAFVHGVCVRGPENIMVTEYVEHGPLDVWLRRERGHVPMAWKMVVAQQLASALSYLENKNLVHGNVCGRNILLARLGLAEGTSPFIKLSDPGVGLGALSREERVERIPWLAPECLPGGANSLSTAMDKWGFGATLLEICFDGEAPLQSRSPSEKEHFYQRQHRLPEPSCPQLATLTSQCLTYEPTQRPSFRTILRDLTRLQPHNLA

Structure (SMILES)	pKd [1]	pIC50 [2]
CNc1ncc(-c2nc3cc(C4COC4)ccc3o2)c2cc(NC(=O)C3CC3)ncc12 [Example 258, N-(8-(methylamino)-5-(5-(oxetan-3-yl)benzo[d]oxazol-2-yl)-2,7-naphthyridin-3-yl)cyclopropanecarboxamide]	≥ 7.00	≥ 6.30
CNc1ncc(-c2nc3cc(N4CCOC(C)C4)c(C)cc3o2)c2cc(NC(=O)C3CC3)ncc12 (centres unmarked) [Example 259, N-(5-(6-methyl-5-(2-methylmorpholino)benzo[d]oxazol-2-yl)-8-(methylamino)-2,7-naphthyridin-3-yl)cyclopropanecarboxamide]	≥ 7.00	≥ 6.30
CNc1ncc(-c2nc3cccc(N4CCC4COC)c3o2)c2cc(NC(=O)C3CC3)ncc12 (centres unmarked) [Example 263, N-(5-(7-(2-(methoxymethyl)azetidin-1-yl)benzo[d]oxazol-2-yl)-8-(methylamino)-2,7-naphthyridin-3-yl)cyclopropanecarboxamide]	≥ 7.00	< 6.30
CNc1ncc(-c2nc3cccc(N4CC(COC)C4)c3o2)c2cc(NC(=O)C3CC3)ncc12 [Example 264, N-(5-(7-(3-(methoxymethyl)azetidin-1-yl)benzo[d]oxazol-2-yl)-8-(methylamino)-2,7-naphthyridin-3-yl)cyclopropanecarboxamide]	≥ 7.00	≥ 6.30
CNc1ncc(-c2nc3cccc(N4CCC4CO)c3o2)c2cc(NC(=O)C3CC3)ncc12 (centres unmarked) [Example 265, N-(5-(7-(2-(hydroxymethyl)azetidin-t-yl)benzo[d]oxazol-2-yl)-8-(methylamino)-2,7-naphthyridin-3-yl)cyclopropanecarboxamide]	≥ 7.00	≥ 6.30
CNc1ncc(-c2nc3cccc(CC#N)c3o2)c2cc(NC(=O)C3CC3)ncc12 [Example 266, N-(5-(7-(cyanomethyl)benzo[d]oxazol-2-yl)-8-(methylamino)-2,7-naphthyridin-3-yl)cyclopropanecarboxamide]	≥ 7.00	≥ 6.30
CNc1ncc(-c2nc3cccc(COC)c3o2)c2cc(NC(=O)C3CC3)ncc12 [Example 267, N-(5-(7-(methoxymethyl)benzo[d]oxazol-2-yl)-8-(methylamino)-2,7-naphthyridin-3-yl)cyclopropanecarboxamide]	≥ 7.00	≥ 6.30
CCO/C=C\c1cccc2nc(-c3cnc(NC)c4cnc(NC(=O)C5CC5)cc34)oc12 [Example 268, (Z)—N-(5-(7-(2-ethoxyvinyl)benzo[d]oxazol-2-yl)-8-(methylamino)-2,7-naphthyridin-3-yl)cyclopropanecarboxamide]	≥ 7.00	≥ 6.30
CCOCCc1cccc2nc(-c3cnc(NC)c4cnc(NC(=O)C5CC5)cc34)oc12 [Example 269, N-(5-(7-(2-ethoxyethyl)benzo[d]oxazol-2-yl)-8-(methylamino)-2,7-naphthyridin-3-yl)cyclopropanecarboxamide]	≥ 7.00	≥ 6.30
CNc1ncc(-c2nc3cccc(CCC#N)c3o2)c2cc(NC(=O)C3CC3)ncc12 [Example 270, N-(5-(7-(2-cyanoethyl)benzo[d]oxazol-2-yl)-8-(methylamino)-2,7-naphthyridin-3-yl)cyclopropanecarboxamide]	≥ 7.00	≥ 6.30
CNc1ncc(-c2nc3cccc(Cc4cocn4)c3o2)c2cc(NC(=O)C3CC3)ncc12 [Example 271, N-(8-(methylamino)-5-(7-(oxazol-4-ylmethyl)benzo[d]oxazol-2-yl)-2,7-naphthyridin-3-yl)cyclopropanecarboxamide]	≥ 7.00	≥ 6.30
CNc1ncc(-c2nc3c(Br)cccc3o2)c2cc(NC(=O)C3CC3)ncc12 [Example 272, N-(5-(4-bromobenzo[d]oxazol-2-yl)-8-(methylamino)-2,7-naphthyridin-3-yl)cyclopropanecarboxamide]	≥ 7.00	≥ 6.30
CNc1ncc(-c2nc3c(CC#N)cccc3o2)c2cc(NC(=O)C3CC3)ncc12 [Example 273, N-(5-(4-(cyanomethyl)benzo[d]oxazol-2-yl)-8-(methylamino)-2,7-naphthyridin-3-yl)cyclopropanecarboxamide]	≥ 7.00	≥ 6.30
